Assay results published in patent publication US20060189565A1, “Pharmaceutical compositions of ganciclovir” (priority 2002, published 2006).

Key:
[1] = Moisture uptake by ganciclovir in an open Petri dish; format: physicochemical; conditions: ganciclovir containing 1.99% water, 25° C., 60% RH
Experimental: Different formulations containing variable percentages of water were subjected to stability and moisture uptake studies. For example, ganciclovir containing 1.99% water content was subjected to moisture uptake at 25° C. and 60% relative humidity (RH) in an open Petri dish and the increase in weight was monitored.

[2] = Accelerated stability testing of packaged final product; format: physicochemical; conditions: 40° C., 75% RH
Experimental: Accelerated stability testing was conducted by varying the water content of ganciclovir between 1.99% w/w and 2.54% w/w. The packages of final product were stored at 40° C. and 75% RH for a period of three months. At predetermined intervals, some of the packages were opened and analyzed to determine the amount of active ingredient, related impurities (RS), and water content present in the formulation.

cytomegalovirus (CMV) = conditions: human clinical studies; cited from earlier work
[3] = test system: herpes simplex virus (HSV); conditions: human clinical studies; cited from earlier work

Nc1nc2c(ncn2COC(CO)CO)c(=O)[nH]1 [ganciclovir, 9-(1,3-dihydroxy-2-propoxymethyl) guanine]
Increase in moisture during storage [1]: no appreciable increase in moisture during storage | Moisture gain ([1]; 2.0 hrs): 0.12 % w/w | Moisture gain ([1]; 4.0 hrs): 0.38 % w/w | Moisture gain ([1]; 8.0 hrs): 0.46 % w/w | Moisture gain ([1]; 48.0 hrs): 0.49 % w/w | Moisture gain ([1]; 168.0 hrs (1 week)): 0.50 % w/w | initial purity retained ([2]; after one month): at least 97% | purity lost ([2]; after one month): less than about three percent | initial purity retained ([2]; after three months): at least 87% | purity lost ([2]; after three months): less than about five percent | initial purity retained ([2]; after two months): at least 96% | purity lost ([2]; after two months): less than about four percent | activity against cytomegalovirus (CMV) (cytomegalovirus (CMV)): active | activity against herpes simplex virus (HSV) [3]: active
